# In patent US8614201B2 (Janssen Pharmaceutica NV, priority 2009, dated 2013):
# Target: Human TRPA1 (Homo sapiens, UniProt O75762)
# Test: Assay 1: In vitro cellular testing of TRPA1 modulation (CHO-TREx, Fluo-3 calcium fluorescence, AITC agonist)
# Assay type: cell-based
# Set-up: expressed in transfected cells; host or cells: CHO-TREx cells (Invitrogen), vector pcDNA4/TO
# Settings: CHO-TREx cells expressing human TRPA1; Fluo-3 fluorescence (FLIPR/Tetra); agonist 15 μM allyl isothiocyanate (AITC); 30 minute antagonist incubation
# Summary of the method: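 Tetracycline-induced CHO-TREx cells stably expressing human TRPA1, loaded with 4 μM Fluo-3 AM, preincubated 30 min with compound (serial dilution typically from 10 μM, three-fold steps) in HEPES saline pH 7.4. Fluorescence change over 3 min after 15 μM AITC; IC50 from Hill fit versus no-antagonist and 10 μM ruthenium red controls.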
# Sequence of Human TRPA1 (O75762 whole entry): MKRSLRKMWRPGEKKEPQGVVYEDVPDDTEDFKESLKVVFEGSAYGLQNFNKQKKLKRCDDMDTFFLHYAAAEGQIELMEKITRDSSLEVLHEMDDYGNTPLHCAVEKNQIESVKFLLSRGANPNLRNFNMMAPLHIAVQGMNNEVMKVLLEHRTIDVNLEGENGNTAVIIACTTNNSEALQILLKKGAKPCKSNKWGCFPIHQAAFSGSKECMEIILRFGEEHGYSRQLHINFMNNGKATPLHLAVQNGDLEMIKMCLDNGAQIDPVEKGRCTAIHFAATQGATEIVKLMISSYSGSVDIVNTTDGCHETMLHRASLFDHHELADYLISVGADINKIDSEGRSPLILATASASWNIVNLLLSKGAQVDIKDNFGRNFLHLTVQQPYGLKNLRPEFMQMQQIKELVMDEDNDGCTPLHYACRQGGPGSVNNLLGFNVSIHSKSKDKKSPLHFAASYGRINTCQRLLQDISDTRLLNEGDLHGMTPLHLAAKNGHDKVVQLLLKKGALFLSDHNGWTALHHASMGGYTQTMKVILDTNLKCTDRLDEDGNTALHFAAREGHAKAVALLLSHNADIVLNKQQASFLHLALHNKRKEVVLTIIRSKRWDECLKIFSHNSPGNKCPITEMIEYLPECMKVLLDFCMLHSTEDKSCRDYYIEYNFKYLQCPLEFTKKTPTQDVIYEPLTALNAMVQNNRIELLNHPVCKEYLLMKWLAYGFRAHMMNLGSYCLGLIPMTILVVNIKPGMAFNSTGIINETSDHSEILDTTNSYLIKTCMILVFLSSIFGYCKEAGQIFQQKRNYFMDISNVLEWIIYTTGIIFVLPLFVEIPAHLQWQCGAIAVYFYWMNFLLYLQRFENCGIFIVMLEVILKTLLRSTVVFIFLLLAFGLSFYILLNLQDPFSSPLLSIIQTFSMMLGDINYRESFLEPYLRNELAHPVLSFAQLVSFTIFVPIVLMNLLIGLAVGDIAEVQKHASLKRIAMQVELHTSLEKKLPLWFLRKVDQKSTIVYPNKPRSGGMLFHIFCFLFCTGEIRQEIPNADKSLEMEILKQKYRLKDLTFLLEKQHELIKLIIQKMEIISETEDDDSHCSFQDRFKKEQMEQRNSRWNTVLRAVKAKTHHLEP
row,SMILES,IC50
1,"C[C@@H](NC(=O)[C@@H]1CCCN1S(=O)(=O)c1ccc(F)cc1)c1cccc(-c2ccc(C(F)(F)F)cc2)c1 [Example 114, (1R,2S)-1-(4-Fluoro-benzenesulfonyl)-pyrrolidine-2-carboxylic acid [1-(4′-trifluoromethyl-biphenyl-3-yl)ethyl]-amide]",2.93 µM
2,"C[C@H](NC(=O)[C@@H]1CCCN1S(=O)(=O)c1ccc(Cl)s1)c1cccc(-c2ccc(C(F)(F)F)cc2)c1 [Example 115, (1S,2S)-1-(5-Chloro-thiophene-2-sulfonyl)-pyrrolidine-2-carboxylic acid [1-(4′-trifluoromethylbiphenyl-3-yl)ethyl]-amide]",0.015 µM
3,"C[C@@H](NC(=O)[C@@H]1CCCN1S(=O)(=O)c1ccc(Cl)s1)c1cccc(-c2ccc(C(F)(F)F)cc2)c1 [Example 116, (1R,2S)-1-(5-Chloro-thiophene-2-sulfonyl)-pyrrolidine-2-carboxylic acid [1-(4′-trifluoromethylbiphenyl-3-yl)ethyl]-amide]",0.386 µM
4,"CC(C)(NC(=O)[C@@H]1CCCN1S(=O)(=O)c1ccc(Cl)s1)c1cccc(-c2ccc(C(F)(F)F)cc2)c1 [Example 118, (2S)-1-(5-Chloro-thiophene-2-sulfonyl)-pyrrolidine-2-carboxylic acid [1-methyl-1-(4′-trifluoromethyl-biphenyl-3-yl)ethyl]-amide]",5.77 µM
5,"O=C(NCc1cccc(-c2ccc(C(F)(F)F)cc2)c1)[C@@H]1CC(F)(F)CN1S(=O)(=O)c1ccc(F)cc1 [Example 119, (2S)-4,4-Difluoro-1-(4-fluoro-benzenesulfonyl)-pyrrolidine-2-carboxylic acid (4′-trifluoromethyl-biphenyl-3-ylmethyl)-amide]",0.047 µM
6,"O=C(NCc1cccc(-c2ccc(C(F)(F)F)cc2)c1)[C@@H]1CC(F)(F)CN1S(=O)(=O)c1ccc(Cl)s1 [Example 120, (2S)-1-(5-Chloro-thiophene-2-sulfonyl)-4,4-difluoro-pyrrolidine-2-carboxylic acid (4′-trifluoromethyl-biphenyl-3-ylmethyl)-amide]",0.03 µM
7,"O=C(NCc1cccc(-c2ccc(C(F)(F)F)cc2)c1)[C@@H]1C[C@H](O)CN1S(=O)(=O)c1ccc(F)cc1 [Example 121, (2S,4S)-1-(4-Fluoro-benzenesulfonyl)-4-hydroxy-pyrrolidine-2-carboxylic acid (4′-trifluoromethyl-biphenyl-3-ylmethyl)-amide]",1.53 µM
8,"O=C(NCc1cccc(-c2ccc(C(F)(F)F)cc2)c1)[C@@H]1C[C@@H](O)CN1S(=O)(=O)c1ccc(F)cc1 [Example 122, (2S,4R)-1-(4-Fluoro-benzenesulfonyl)-4-hydroxy-pyrrolidine-2-carboxylic acid (4′-trifluoromethyl-biphenyl-3-ylmethyl)-amide]",0.267 µM
9,"O=C(NCc1ccnc(-c2ccc(C(F)(F)F)cc2)c1)[C@@H]1CCCN1S(=O)(=O)c1ccc(F)cc1 [Example 123, 1-(4-Fluoro-benzenesulfonyl)-pyrrolidine-2S-carboxylic acid [2-(4-trifluoromethyl-phenyl)-pyridin-4-ylmethyl]-amide]",0.032 µM
10,"O=C(NCc1ccnc(-c2ccc(C(F)(F)F)cc2)c1)[C@@H]1CC(F)(F)CN1S(=O)(=O)c1ccc(F)cc1 [Example 125, 4,4-Difluoro-1-(4-fluorobenzenesulfonyl)-pyrrolidine-2S-carboxylic acid [2-(4-trifluoromethylphenyl)-pyridin-4-ylmethyl]-amide]",0.063 µM
11,"O=C(NCc1ccnc(-c2ccc(OC(F)(F)F)cc2)c1)[C@@H]1CCCN1S(=O)(=O)c1ccc(F)cc1 [Example 129, 1-(4-Fluoro-benzenesulfonyl)-pyrrolidine-2S-carboxylic acid [2-(4-trifluoromethoxy-phenyl)-pyridin-4-ylmethyl]-amide]",0.019 µM
12,"O=C(NCc1ccnc(-c2ccc(OC(F)(F)F)cc2)c1)[C@@H]1CC(F)(F)CN1S(=O)(=O)c1ccc(F)cc1 [Example 131, 4,4-Difluoro-1-(4-fluoro-benzenesulfonyl)-pyrrolidine-2S-carboxylic acid [2-(4-trifluoromethoxy-phenyl)-pyridin-4-ylmethyl]-amide]",0.087 µM
13,"O=C(NCc1cc(-c2ccc(C(F)(F)F)cc2)ccn1)[C@@H]1CCCN1S(=O)(=O)c1ccc(F)cc1 [Example 135, 1-(4-Fluoro-benzenesulfonyl)-pyrrolidine-2S-carboxylic acid [4-(4-trifluoromethyl-phenyl)-pyridin-2-ylmethyl]-amide]",0.022 µM
14,"O=C(NCc1cc(-c2ccc(C(F)(F)F)cc2)ccn1)[C@@H]1CCCN1S(=O)(=O)c1ccc(Cl)s1 [Example 136, 1-(5-Chloro-thiophene-2-sulfonyl)-pyrrolidine-2S-carboxylic acid [4-(4-trifluoromethyl-phenyl)-pyridin-2-ylmethyl]-amide]",0.035 µM
15,"O=C(NCc1cc(-c2ccc(OC(F)(F)F)cc2)ccn1)[C@@H]1CCCN1S(=O)(=O)c1ccc(F)cc1 [Example 137, 1-(4-Fluoro-benzenesulfonyl)-pyrrolidine-2S-carboxylic acid [4-(4-trifluoromethoxy-phenyl)-pyridin-2-ylmethyl]-amide]",0.037 µM
16,"O=C(NCc1cc(-c2ccc(C(F)(F)F)cc2)ccn1)[C@@H]1CC(F)(F)CN1S(=O)(=O)c1ccc(F)cc1 [Example 139, 4,4-Difluoro-1-(4-fluoro-benzenesulfonyl)-pyrrolidine-2S-carboxylic acid [4-(4-trifluoromethyl-phenyl)-pyridin-2-ylmethyl]-amide]",0.073 µM
17,"O=C(NCc1cc(-c2ccc(C(F)(F)F)cc2)ccn1)[C@@H]1CC(F)(F)CN1S(=O)(=O)c1ccc(Cl)s1 [Example 140, 1-(5-Chloro-thiophene-2-sulfonyl)-4,4-difluoro-pyrrolidine-2S-carboxylic acid [4-(4-trifluoromethyl-phenyl)-pyridin-2-ylmethyl]-amide]",0.079 µM
18,"O=C(NCc1cc(-c2ccc(OC(F)(F)F)cc2)ccn1)[C@@H]1CC(F)(F)CN1S(=O)(=O)c1ccc(F)cc1 [Example 141, 4,4-Difluoro-1-(4-fluoro-benzenesulfonyl)-pyrrolidine-2S-carboxylic acid [4-(4-trifluoromethoxy-phenyl)-pyridin-2-ylmethyl]-amide]",0.073 µM
19,"O=C(NCc1cc(-c2ccc(OC(F)(F)F)cc2)ccn1)[C@@H]1CC(F)(F)CN1S(=O)(=O)c1ccc(Cl)s1 [Example 142, 1-(5-Chloro-thiophene-2-sulfonyl)-4,4-difluoro-pyrrolidine-2S-carboxylic acid [4-(4-trifluoromethoxy-phenyl)-pyridin-2-ylmethyl]-amide]",0.078 µM

# Second part, the molecule after the results:
row,IC50,SMILES
1,0.011 µM,"O=C(NCc1ccnc(-c2ccc(C(F)(F)F)cc2)c1)[C@@H]1CCCN1S(=O)(=O)c1ccc(Cl)s1 [Example 124, 1-(5-Chlorothiophene-2-sulfonyl)pyrrolidine-2S-carboxylic acid [2-(4-trifluoromethylphenyl)-pyridin-4-ylmethyl]-amide]"
2,0.046 µM,"O=C(NCc1ccnc(-c2ccc(C(F)(F)F)cc2)c1)[C@@H]1CC(F)(F)CN1S(=O)(=O)c1ccc(Cl)s1 [Example 126, 1-(5-Chlorothiophene-2-sulfonyl)-4,4-difluoropyrrolidine-2S-carboxylic acid [2-(4-trifluoromethylphenyl)-pyridin-4-ylmethyl]-amide]"
3,0.042 µM,"O=C(NCc1ccnc(-c2ccc(C(F)(F)F)cc2)c1)[C@@H]1C=CCN1S(=O)(=O)c1ccc(F)cc1 [Example 127, 1-(4-Fluorobenzenesulfonyl)-2,5-dihydro-1H-pyrrole-2S-carboxylic acid [2-(4-trifluoromethylphenyl)-pyridin-4-ylmethyl]-amide]"
4,0.049 µM,"O=C(NCc1ccnc(-c2ccc(C(F)(F)F)cc2)c1)[C@@H]1C=CCN1S(=O)(=O)c1ccc(Cl)s1 [Example 128, 1-(5-Chlorothiophene-2-sulfonyl)-2,5-dihydro-1H-pyrrole-2S-carboxylic acid [2-(4-trifluoromethylphenyl)-pyridin-4-ylmethyl]-amide]"
5,0.006 µM,"O=C(NCc1ccnc(-c2ccc(OC(F)(F)F)cc2)c1)[C@@H]1CCCN1S(=O)(=O)c1ccc(Cl)s1 [Example 130, 1-(5-Chloro-thiophene-2-sulfonyl)-pyrrolidine-2S-carboxylic acid [2-(4-trifluoromethoxy-phenyl)-pyridin-4-ylmethyl]-amide]"
6,0.117 µM,"O=C(NCc1ccnc(-c2ccc(OC(F)(F)F)cc2)c1)[C@@H]1CC(F)(F)CN1S(=O)(=O)c1ccc(Cl)s1 [Example 132, 1-(5-Chloro-thiophene-2-sulfonyl)-4,4-difluoro-pyrrolidine-2S-carboxylic acid [2-(4-trifluoromethoxy-phenyl)-pyridin-4-ylmethyl]-amide]"
7,0.026 µM,"O=C(NCc1ccnc(-c2ccc(OC(F)(F)F)cc2)c1)[C@@H]1C=CCN1S(=O)(=O)c1ccc(F)cc1 [Example 133, 1-(4-Fluoro-benzenesulfonyl)-2,5-dihydro-1H-pyrrole-2S-carboxylic acid [2-(4-trifluoromethoxy-phenyl)-pyridin-4-ylmethyl]-amide]"
8,0.021 µM,"O=C(NCc1ccnc(-c2ccc(OC(F)(F)F)cc2)c1)[C@@H]1C=CCN1S(=O)(=O)c1ccc(Cl)s1 [Example 134, 1-(5-Chloro-thiophene-2-sulfonyl)-2,5-dihydro-1H-pyrrole-2S-carboxylic acid [2-(4-trifluoromethoxy-phenyl)-pyridin-4-ylmethyl]-amide]"
9,0.017 µM,"O=C(NCc1cc(-c2ccc(OC(F)(F)F)cc2)ccn1)[C@@H]1CCCN1S(=O)(=O)c1ccc(Cl)s1 [Example 138, 1-(5-Chloro-thiophene-2-sulfonyl)-pyrrolidine-2S-carboxylic acid [4-(4-trifluoromethoxy-phenyl)-pyridin-2-ylmethyl]-amide]"
